What all share (type): cell-based
The subject of test [1] is Respiratory syncytial virus (RSV) strain A2. Kind of test: RSV antiviral assay (HEp-2, 96 well). The following applies: Table 3.
Test [2] relates to SARS-CoV-2. Kind of test: SARS-CoV-2 antiviral assay (A549-hACE2, Nano luciferase). As to conditions: A549-hACE2 cells, SARS-CoV2-Nano, MOI 0.025, 48 h, Table 4, read-out: EC50 SARS CoV2.
Test [3] relates to Recombinant respiratory syncytial virus expressing the firefly luciferase protein (RSV-Fluc). Put plainly: microbe, parasite or virus in culture. As to conditions: Table 4.
In test [4] the test system is Respiratory syncytial virus (RSV) strain A2. Kind of test: Hep-2 RSV2 384-well assay (EC50-HEP2-384). The following applies: human respiratory syncytial virus, HEp-2, 96 h, HEp-2 cells, RSV A2, MOI=4, 4 days, Table 3.
Where [5] appears, read: read-out: EC50 RSV HEP2 96, HEp-2 cells, RSV A2, MOI=4, 4 days, 96 well.
Where [6] appears, read: read-out: EC50 RSVFluc NHBE 96, NHBE cells, RSV-Fluc, MOI of 0.1, three days, 96 well.
Setting [7] is: human respiratory syncytial virus, HEp-2, 96 h, read-out: EC50 RSV HEP2 96, HEp-2 cells, RSV A2, MOI=4, 4 days, 96 well.
The mark [8] stands for this setting: Severe acute respiratory syndrome coronavirus 2, 48 h.
Where [9] appears, read: human respiratory syncytial virus, NHBE, 72 h, read-out: EC50 RSVFluc NHBE 96, NHBE cells, RSV-Fluc, MOI of 0.1, three days, 96 well.

The structures appear in SMILES notation. Read-outs that look alike come from different tables or passages of the source.

The source of these data is US12404289B2 (Gilead Sciences, Inc., priority 2020, dated 2025).

One may read the EC50 as the midpoint of the concentration-response curve.

Turning to `CC(C)C(=O)O[C@H]1[C@@H](OC(=O)C(C)C)[C@](C#N)(c2ccc3c(N)ncnn23)O[C@@H]1COP(=O)(N[C@@H](C)C(=O)OC1CCC1)Oc1ccc(C(C)(C)C)cc1` (single isomer, unassigned) [Example 50a], the EC50 in test [1] (setting [5]) turned out to be 0.0213 µM; in test [2], 0.0388 µM; in test [3] (setting [6]) it was 0.0275 µM.

`CC(C)C(=O)O[C@H]1[C@@H](OC(=O)C(C)C)[C@](C#N)(c2ccc3c(N)ncnn23)O[C@@H]1COP(=O)(N[C@@H](C)C(=O)OC1CCC1)Oc1ccc(C(C)(C)C)cc1` (single isomer, unassigned) [Example 50b]: the EC50 was 0.00852 µM in test [1] (setting [5]), 0.239 µM in test [2] and 0.00536 µM in test [3] (setting [6]).

As to `CC(C)C(=O)O[C@H]1[C@@H](OC(=O)C(C)C)[C@](C#N)(c2ccc3c(N)ncnn23)O[C@@H]1COP(=O)(N[C@@H](C)C(=O)OC1CCC1)Oc1cccc2ccccc12` (single isomer, unassigned) [Example 55a], the figures for the EC50 in test [1] (setting [7]), in test [2] (setting [8]) and in test [3] (setting [6]) were 0.00709 µM, 0.104 µM and 0.0199 µM, respectively.

For the compound `CC(C)C(=O)O[C@H]1[C@@H](OC(=O)C(C)C)[C@](C#N)(c2ccc3c(N)ncnn23)O[C@@H]1COP(=O)(N[C@@H](C)C(=O)OC1CCC1)Oc1cccc2ccccc12` (single isomer, unassigned) [Example 55b], the figures for the EC50 in test [1] (setting [5]), in test [2] and in test [3] (setting [6]) were 0.00744 µM, 0.108 µM and 0.00612 µM, respectively.

As for `CCC(CC)COC(=O)[C@H](C)NP(=O)(OC[C@H]1O[C@@](C#N)(c2ccc3c(N)ncnn23)[C@H](O)[C@@H]1O)Oc1ccc2ccccc2c1` (single isomer, unassigned) [Intermediate S3-b], the EC50 in test [1] (setting [5]) worked out at 0.0188 µM; in test [4], 0.068 µM.

Regarding `CC(C)C(=O)O[C@H]1[C@@H](OC(=O)C(C)C)[C@](C#N)(c2ccc3c(N)ncnn23)O[C@@H]1COP(=O)(N[C@@H](C)C(=O)OC1CCC1)Oc1ccc(C2CC2)cc1` (stereo partly drawn) [Example 52a], the figures for the EC50 in test [1] (setting [7]), in test [2] (setting [8]) and in test [3] (setting [9]) were 0.0205 µM, 0.0645 µM and 0.0208 µM, respectively.

Regarding `C[C@H](NP(=O)(OC[C@H]1O[C@@](C#N)(c2ccc3c(N)ncnn23)[C@H](O)[C@@H]1O)Oc1ccc(C(C)(C)C)cc1)C(=O)OCCC(C)(C)C` (stereo partly drawn) [Example 61, 3,3-dimethylbutyl (2S)-2-[[[(2R,3S,4R,5R)-5-(4-aminopyrrolo[2,1-f][1,2,4]triazin-7-yl)-5-cyano-3,4-dihydroxy-tetrahydrofuran-2-yl]methoxy-(4-tert-butylphenoxy)phosphoryl]amino]propanoate], the EC50 in test [1] (setting [7]) stood at 0.0367 µM; in test [4] it was 0.0724 µM.

Turning to `C[C@H](NP(=O)(OC[C@H]1O[C@@](C#N)(c2ccc3c(N)ncnn23)[C@H](O)[C@@H]1O)Oc1ccc(C(C)(C)C)cc1)C(=O)OC1CC2(CCC2)C1` (stereo partly drawn) [Example 65, spiro[3.3]heptan-2-yl (2S)-2-[[[(2R,3S,4R,5R)-5-(4-aminopyrrolo[2,1-f][1,2,4]triazin-7-yl)-5-cyano-3,4-dihydroxy-tetrahydrofuran-2-yl]methoxy-(4-tert-butylphenoxy)phosphoryl]amino]propanoate], the 50% effective concentration (EC50) in test [1] (setting [7]) turned out to be 0.336 µM; in test [2], 0.265 µM; in test [3] (setting [6]) it was 0.00324 µM.

As to `CCOC(=O)[C@H](C)NP(=O)(OC[C@H]1O[C@@](C#N)(c2ccc3c(N)ncnn23)[C@H](OC(=O)C(C)C)[C@@H]1OC(=O)C(C)C)Oc1cccc2ccccc12` (stereo partly drawn) [Example 67, [(2R,3R,4R,5R)-5-(4-aminopyrrolo[2,1-f][1,2,4]triazin-7-yl)-5-cyano-2-[[[[(1S)-2-ethoxy-1-methyl-2-oxo-ethyl]amino]-(1-naphthyloxy)phosphoryl]oxymethyl]-4-(2-methylpropanoyloxy)tetrahydrofuran-3-yl] 2-methylpropanoate], the EC50 in test [1] (setting [7]) was determined as 0.018 µM; in test [2] (setting [8]) it was 0.0272 µM; in test [3] (setting [9]), 0.00872 µM.

For the compound `CC(=O)O[C@H]1[C@@H](OC(C)=O)[C@](C#N)(c2ccc3c(N)ncnn23)O[C@@H]1COP(=O)(N[C@@H](C)C(=O)OC1CC2(CCC2)C1)Oc1ccc(C(C)(C)C)cc1` (stereo partly drawn) [Example 80, Spiro[3.3]heptan-2-yl (2S)-2-[[(4-tert-butylphenoxy)-[[(2R,3R,4R,5R)-3,4-diacetoxy-5-(4-aminopyrrolo[2,1-f][1,2,4]triazin-7-yl)-5-cyano-tetrahydrofuran-2-yl]methoxy]phosphoryl]amino]propanoate], the EC50 came to 0.0169 µM in test [1] (setting [7]), 0.31 µM in test [2] and 0.0165 µM in test [3] (setting [6]).

As to `CC(C)C(=O)O[C@H]1[C@@H](OC(=O)C(C)C)[C@](C#N)(c2ccc3c(N)ncnn23)O[C@@H]1COP(=O)(N[C@@H](C)C(=O)OC1CCOCC1)Oc1ccc(C(C)(C)C)cc1` (stereo partly drawn) [Example 90, [(2R,3R,4R,5R)-5-(4-aminopyrrolo[2,1-f][1,2,4]triazin-7-yl)-2-[[(4-tert-butylphenoxy)-[[(1S)-1-methyl-2-oxo-2-tetrahydropyran-4-yloxy-ethyl]amino]phosphoryl]oxymethyl]-5-cyano-4-(2-methylpropanoyloxy)tetrahydrofuran-3-yl] 2-methylpropanoate], the EC50 in test [1] (setting [7]) came to 0.0204 µM; in test [4], 0.124 µM.

As to `CCC(C)(C)COC(=O)[C@H](C)NP(=O)(OC[C@H]1O[C@@](C#N)(c2ccc3c(N)ncnn23)[C@H](OC(=O)C(C)C)[C@@H]1OC(=O)C(C)C)Oc1ccc(C(C)(C)C)cc1` (stereo partly drawn) [Example 126, (2R,3R,4R,5R)-2-(4-aminopyrrolo[2,1-f][1,2,4]triazin-7-yl)-5-((((4-(tert-butyl)phenoxy)(((S)-1-(2,2-dimethylbutoxy)-1-oxopropan-2-yl)amino)phosphoryl)oxy)methyl)-2-cyanotetrahydrofuran-3,4-diyl bis(2-methylpropanoate)], the EC50 in test [1] (setting [7]) is 0.017 µM; in test [2] (setting [8]) it was 0.0774 µM; in test [4], 0.116 µM.

`C[C@H](NP(=O)(OC[C@H]1O[C@@](C#N)(c2ccc3c(N)ncnn23)[C@H](O)[C@@H]1O)Oc1ccc(C(C)(C)C)cc1)C(=O)OCC1CCCCC1` (stereo partly drawn) [Example 156, Cyclohexylmethyl ((((2R,3S,4R,5R)-5-(4-aminopyrrolo[2,1-f][1,2,4]triazin-7-yl)-5-cyano-3,4-dihydroxytetrahydrofuran-2-yl)methoxy)(4-(tert-butyl)phenoxy)phosphoryl)-L-alaninate]: the EC50 in test [2] (setting [8]) worked out at 0.363 µM; in test [4], 0.195 µM.

On to `CCC(C)(C)CCOC(=O)[C@H](C)NP(=O)(OC[C@H]1O[C@@](C#N)(c2ccc3c(N)ncnn23)[C@H](OC(C)=O)[C@@H]1OC(C)=O)Oc1ccc(C(C)(C)C)cc1` (stereo partly drawn) [Example 159, (2R,3R,4R,5R)-2-(4-aminopyrrolo[2,1-f][1,2,4]triazin-7-yl)-5-((((4-(tert-butyl)phenoxy)(((S)-1-((3,3-dimethylpentyl)oxy)-1-oxopropan-2-yl)amino)phosphoryl)oxy)methyl)-2-cyanotetrahydrofuran-3,4-diyl Diacetate], for which the EC50 in test [2] (setting [8]) is 0.369 µM; in test [4] it was 0.0793 µM.

In the case of `CC(=O)O[C@H]1[C@@H](OC(C)=O)[C@](C#N)(c2ccc3c(N)ncnn23)O[C@@H]1COP(=O)(N[C@@H](C)C(=O)OCC1CCCCC1)Oc1ccc(C(C)(C)C)cc1` (stereo partly drawn) [Example 163, (2R,3R,4R,5R)-2-(4-aminopyrrolo[2,1-f][1,2,4]triazin-7-yl)-5-((((4-(tert-butyl)phenoxy)(((S)-1-(cyclohexylmethoxy)-1-oxopropan-2-yl)amino)phosphoryl)oxy)methyl)-2-cyanotetrahydrofuran-3,4-diyl Diacetate], the EC50 was found to be 0.378 µM in test [2] (setting [8]) and 0.068 µM in test [4].

Turning to `C[C@@H](CC(=O)OC1CCC1)NP(=O)(OC[C@H]1O[C@@](C#N)(c2ccc3c(N)ncnn23)[C@H](O)[C@@H]1O)Oc1ccc(C(C)(C)C)cc1` (stereo partly drawn) [Example 165, cyclobutyl (3S)-3-(((((2R,3S,4R,5R)-5-(4-aminopyrrolo[2,1-f][1,2,4]triazin-7-yl)-5-cyano-3,4-dihydroxytetrahydrofuran-2-yl)methoxy)(4-(tert-butyl)phenoxy)phosphoryl)amino)butanoate], the EC50 in test [2] (setting [8]) stood at 10 µM; in test [4], 5 µM.

In the case of `CC(=O)O[C@H]1[C@@H](OC(C)=O)[C@](C#N)(c2ccc3c(N)ncnn23)O[C@@H]1COP(=O)(N[C@@H](C)CC(=O)OC1CCC1)Oc1ccc(C(C)(C)C)cc1` (stereo partly drawn) [Example 166, (2R,3R,4R,5R)-2-(4-aminopyrrolo[2,1-f][1,2,4]triazin-7-yl)-5-((((4-(tert-butyl)phenoxy)(((S)-4-cyclobutoxy-4-oxobutan-2-yl)amino)phosphoryl)oxy)methyl)-2-cyanotetrahydrofuran-3,4-diyl Diacetate], the EC50 was determined as 10 µM in test [2] (setting [8]) and 5 µM in test [4].

For `CCC(CC)COC(=O)[C@H](C)NP(=O)(OC[C@H]1O[C@@](C#N)(c2ccc3c(N)ncnn23)[C@H](O)[C@@H]1O)Oc1ccc2ccccc2c1` (stereo partly drawn) [Intermediate S3, 2-ethylbutyl ((((2R,3S,4R,5R)-5-(4-aminopyrrolo[2,1-f][1,2,4]triazin-7-yl)-5-cyano-3,4-dihydroxytetrahydrofuran-2-yl)methoxy)(naphthalen-2-yloxy)phosphoryl)-L-alaninate], the results for the EC50 in test [2] (setting [8]) and in test [3] (setting [9]) were 0.113 µM and 0.00551 µM, respectively.
